Measured values: patent publication US20060292683A1, “Cross-beta structures on microbial organisms” (Crossbeta Biosciences B.V., priority 2005, published 2006)

Tests used:
THP-1 monocytes = assay: Tissue factor up-regulation in THP-1 monocytes by misfolded proteins; assay type: cell-based; conditions: 40 μg/ml glycated hemoglobin or 10 μg/ml amyloid-β(1-40); controls freshly dissolved
Experimental: For tissue factor expression analysis purposes, THP-1 cells were cultured in IMDM without gentamycin and streptomycin. At day 0, one ml of cells was seeded at 1×10^6 cells/ml in the wells of six-well culture plates. At day 1, […] PBS or with cross-beta structure binding compounds ThT, Congo red, tPA and IgIV, as described above, at a cell density of 1.8×10^7/ml (regular culturing conditions). Negative control was buffer. After six hours, the cells were pelleted by centrifugation and resuspended in 100 μl TBS (50 mM Tris-HCl, 150 mM NaCl, pH 7.0-7.3). Next, the cells were frozen and thawed for four subsequent cycles. Cells were centrifuged for ten minutes at 16,000*g and the supernatant was used for analysis of tissue factor (TF) expression. First, protein concentrations were determined using an established protein concentration assay (Bicinchoninic Acid (BCA) Protein Assay). Protein concentrations were equalized between samples with TBS to correct for variations in cell density. […] Conversion of the substrate by activated factor X at 37° C. was recorded in time for 100 minutes, by absorbance readings at 405 nm. As an additional control, factor X activity was assessed with S. aureus cells only, omitting the monocytes. […]

[1] = molecular target: glycated hemoglobin (Hb-AGE) (Homo sapiens, UniProt P68871+P69905); assay: ELISA capture of glycated hemoglobin from solution by immobilized finger domains; assay type: binding; conditions: immobilized finger domain; not control hemoglobin
glycated hemoglobin (Hb-AGE), sequence (P69905 whole entry, the tested form may be a part): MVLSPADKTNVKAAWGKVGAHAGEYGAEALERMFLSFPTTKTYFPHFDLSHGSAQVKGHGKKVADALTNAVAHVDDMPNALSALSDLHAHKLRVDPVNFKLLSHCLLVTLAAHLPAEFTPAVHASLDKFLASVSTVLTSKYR
glycated hemoglobin (Hb-AGE), sequence (P68871 whole entry, the tested form may be a part): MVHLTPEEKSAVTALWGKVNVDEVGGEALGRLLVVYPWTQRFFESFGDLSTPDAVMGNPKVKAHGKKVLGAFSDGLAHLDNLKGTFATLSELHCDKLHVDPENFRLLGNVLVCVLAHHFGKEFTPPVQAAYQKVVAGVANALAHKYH

Substance: amyloid-β: amyloid-β(1-40) with cross-beta structure conformation
- TF expression in THP-1 monocytes (factor X activation by lysates) (THP-1 monocytes): induce elevated levels of TF

Substance: fibronectin F4-5 with a His-tag: recombinant fibronectin type I domains 4-5, N-terminally tagged to growth hormone and His6-tag, C-terminal His6-tag
- capture of glycated hemoglobin in solution [1]: specifically capture
